Legend:
Germacrene D synthase = Germacrene D synthase (Actinidia deliciosa, UniProt Q32W37); test: Kinetic studies with 3H-FDP, pentane overlay scintillation assay; type: biochemical; settings: for effect of added ions on activity: 50 mM KCl or NaCl; for inhibition at high concentrations of the chloride salts: >5 mM and 10 mM of the respective Mg2+ and Mn2+ chloride salts
Procedure: Optimisation of large-scale production of protein and protein kinetics: E. coli BL21-PlusTM-RIL cells harbouring pET-30a75565 were grown overnight at 37° C. in Lauria-Bertani media supplemented with 30 μg ml^-1 kanamycin and 34 μg ml chloramphenicol^-1. 5 mL aliquots of overnight culture were used to inoculate 4×300 mL of fresh 2× YT medium supplemented with 30 μg ml^-1 […] 34 μg ml^-1 chloramphenicol in 1 L baffled flasks. Cultures were grown at 37° C. with vigorous agitation to A600=0.8, then removed to 4° C. to equilibrate to 16° C. before induction with 0.3 mM IPTG. Induced cultures were then incubated at 16° C. and 220 rpm for a further 72 hours. Cells were pelleted by centrifugation (2500×g; 10 min) and stored overnight at -20° C. The following day cell pellets were resuspended in 20 mL His6 binding buffer and cells were disrupted by 2 passes through an EmulsiFlex®-C15 high-pressure homogeniser (Avestin) with a pressure setting between 15000-20000 psi. Cell debris was pelleted by centrifugation 2× at 10000×g for 15 min; 4° C. (Sorval SS34 rotor). […] Filtered extract was desalted and passed over a Nickel affinity column. Concentration of the recombinant synthase in the purified protein extracts was estimated from SDS-PAGE gels by comparing against a BenchMarkTM Protein Ladder (Invitrogen). Purified extracts were adjusted to a workable concentration with His6 elution buffer (without Imidazole) containing 10% glycerol and 1 mM DTT. The extract was then separated into 100 μl aliquots and stored at -80° C. until required. […] Kinetic Studies: […] Tritiated FDP was added variously depending on the experiment. One mL assays containing 100-150 ng of the recombinant synthase were overlaid with 0.6 mL pentane and incubated in 1.5 mL microfuge tubes for 2 hours at 30° C. and 150 rpm. All assays were performed in triplicate. Following incubation assays were immediately placed on ice and a 200 μL aliquot of the pentane layer removed for analysis. The aliquots were added to 1.5 mL microfuge tubes containing 0.7 mL Organic Counting Scintillant (OCS) (Amersham) and vortexed briefly. Scintillation analysis was performed using a Wallac 1409 Liquid Scintillation Counter (^3H efficiency≈70%). […] The effect on enzyme activity of metal co-factors with and without salts was also tested. Mg^2+ and Mn^2+ were added in the presence and absence of 50 mM KCL and 50 mM NaCl in all possible combinations. Controls included incubation without enzyme, with enzyme but without metal ion cofactors and with enzyme and cofactors in the presence of 10 mM EDTA. A further control comprising His6 purified pET-30a extract was also assayed to determine potential utilisation of FDP by co-purifying bacterial proteins. […] Kinetic constants were determined from the DPM data by nonlinear regression using the Origin50 graphics package.

house dust mites = settings: Chang et al. 2001; cited from earlier work
[1] = Thermal rearrangement, pentane extracts from Actinidia flowers injected at different port temperatures; type: physicochemical
Procedure: Whole flowers of the same plants were also harvested at anthesis in 2000. 18.6 g and 21 g of flowers from a mixture of developmental stages were placed in 2× Quickfit® Erlenmeyer flasks as above. Volatiles were collected onto a Chromosorb adsorbent trap in duplicate, after the system had been equilibrated for 30 min at room temperature (ca. 23° C.), by purging onto the trap with clean air at 25 mL min^−1 for 60 minutes. The trap was stored at −15° C. for one week and then analysed by GC-FD/MS. The same petals (1.99 g) were then extracted with pentane-ether (2 ml) and stored at −20° C. until analysed. The pentane (GPR, BDH) had been purified by distillation and by passing through a column of activated alumina. Pentane extracts were reduced by rotary evaporation and were dried by passing through a small column of anhydrous MgSO4 before the volume was reduced to ca. 50 μL under a gentle stream of nitrogen. The extract was analysed by GC-FID/MS.
GC-MS Analysis of dynamic headspace samples and pentane extracts: Volatile compounds were thermally desorbed from the headspace traps at 150° C. and were cryo-focussed at the beginning of the GC column (Young, 1981). The column outlet was split between the GC (Hewlett Packard 5890) FID detector (for quantitation) and VG-70SE (VG-Micromass, Manchester, U.K.) mass spectrometer (for component identification) with an electron impact ionisation of 70 eV. Separations were carried out in a 30 m×0.32 mm i.d., 0.5 μn DBWax capillary column (J & W Scientific, Folsom, USA), starting at 30° C. for 6 min, increasing by 3° C. min^−1 to 102° C., 5° C. min^−1 to 210° C. and held for 5 min. Injector temperature was 210° C. The carrier gas was He at a flow rate of ˜30 cm s^−1, and the FID and mass spectrometer transfer line were at 210° C. Quantification of compounds was carried out using an average detector response based on methyl butanoate, ethyl butanoate, hexanol and methyl benzoate. Components were identified by comparison with spectra in the mass spectral database (NIST 1998, Wiley 7 and an in-house database), retention indices (in-house database) and in some cases direct GC-MS comparison with authentic standards. Separations for the earlier 2000 samples were carried out in the same manner as above except the programme started at 30° C. for 6 min, increasing by 3° C. min^−1 to 102° C., 5° C. min^−1 to 190° C. and held for 5 min. Analysis of the pentane extract used a programme of 2 min at 40° C., 5° C. min^−1 to 200° C., 15° C. m^−1 to 240° C. and held for 20 min. For genotype 32-10-07a: the GC-MS was programmed to start at 30° C. for 2 min, increasing by 3° C. min^−1 to 50° C., 5° C. min^−1 to 130° C., 10° C. min^−1 to 240° C. and held for 2 min. Injector temperature was 240° C.
In an experiment to test for thermal rearrangement, injections of pentane extract from purified protein were made at temperatures of 125, 150 and 210° C.; or pentane extract from Actinidia flowers were made at temperatures of 100, 125, 150 and 210° C.

[2] = Thermal rearrangement, pentane extracts from purified protein injected at different port temperatures; type: physicochemical
Procedure: Dynamic headspace methods were also used to collect the headspace volatiles from the purified extracts on to 100 mg Chromosorb 105 adsorbent traps. The protein was placed into 50 mL Quickfit® test tubes, which were fitted with a headspace adaptor with an air inlet and outlet. Volatiles were collected onto the Chromosorb 105 adsorbent traps, which were fitted to the air outlet port of each adaptor. The volatiles were purged from the vessel onto the traps with clean air at 50 mL min^−1 for 18 hours. The traps were stored at −15° C. for up to one week, and then subjected to GC-FIDIMS analysis. Finally, pentane extracts were taken from the purified extracts. An aliquot (2.5 ml) of pentane was added to the purified extracts and was left to extract for 18 hours. The pentane was removed and then concentrated with a stream of N2 gas. This was then injected onto the GC-MS at 150° C.
More light can be shed on the possibility of rearrangement of the products using pentane extraction.
In an experiment to test for thermal rearrangement, injections of pentane extract from purified protein were made at temperatures of 125, 150 and 210° C.; or pentane extract from Actinidia flowers were made at temperatures of 100, 125, 150 and 210° C. […] Germacrene B modulated slightly in response to temperature shifts although no gamma-elemene was found as might be predicted. In addition the predicted precursor for delta elemene—germacrene C (Feger et al., Flavour and Fragrance Journal 15: 170-173 (2000)) was not detected at any time. Germacrene A was also not detected at any time. […] Elemol may arise from further rearrangements of delta-elemene or from other elemene sources or from hedycaryol (Chamblee et al., J. Essent. Oil Res. 9: 127-132 (1997)). No GC-MS traces in any experiments indicated evidence for germacrene-C or for hedycaryol.

[3] = test system: other sesquiterpene synthases; settings: read-out: Km in the literature; cited from earlier work
[4] = test system: multifunctional germacrene D synthase; test: Headspace volatiles above E. coli BL21 cultures harbouring pET30a75565, PDMS/DVB SPME; type: cell-based, Actinidia deliciosa; settings: bacterial cultures
Procedure: Expression and characterization of multifunctional germacrene D synthase from bacterial cultures: E. coli BL21-Plus™-RIL cells harbouring pET30a75565, or empty pET30a vector as a control, were grown overnight at 37° C. in Luria-Bertani media supplemented with 30 μg/mL kanamycin and 50 μg/mL chloramphenicol. […] of overnight culture was used to inoculate 50 mL of fresh 2× YT medium supplemented with 30 μg/mL kanamycin and 50 μg/mL chloramphenicol. […] The culture was immediately transferred to an incubator set at 16° C., 30° C. or 37° C. depending on the experiment The headspace in the vessels above the bacterial cultures was collected immediately after the addition of FDP (or GDP) and hexadecane (the internal standard) using solid phase micro extraction (SPME). […] The background was analysed for contamination using GC-FID (HP5890) prior to use. The headspace volatiles were collected for ˜20 hours at 30° C. with continuous agitation (110 rpm). Prior to analysis using a GC-FID/MS, the fibres were stored at ambient temperature in septum sealed glass vials. The PDMS/DVB fibres were desorbed in the injector at 260° C.

[5] = test system: multifunctional germacrene D synthase (EST75565); test: Sesquiterpene products of purified recombinant protein + FDP, headspace trapping GC-MS; type: biochemical, Actinidia deliciosa
Procedure: Characterization of multifunctional germacrene D synthase from bacterial extracts and purified recombinant protein: E. coli BL21-Plus™-RIL cells harbouring pET-30a75565 were grown overnight at 37° C. in Lauria-Bertani media supplemented with 30 μg ml^−1 kanamycin and 34 μg ml chloramphenicol^−1. 5 mL aliquots of overnight culture were used to inoculate 4×300 mL of fresh 2× YT medium supplemented with 30 μg ml^−1 kanamycin and 34 μg ml^−1 chloramphenicol in 1 L baffled flasks. Cultures were grown at 37° C. with vigorous agitation to A600=0.8, then removed to 4° C. to equilibrate to 16° C. before induction with 0.3 mM IPTG. Following induction, cultures were immediately transferred to a 16° C. incubator and allowed to grow for a further 24 hours with continuous agitation and then harvested by centrifugation (2000×g for 10 min). […]
The headspace in the testubes was collected immediately after the addition of FDP (or GDP) and hexadecane (internal standard) using solid phase micro extraction (SPME). […] The background was analysed for contamination using GC-FID (HP5890) prior to use. […]
The volatiles were desorbed from the fibres in the GC injection port for 10 minutes at 220° C. for the Carbowax/DVB fibres. […] Semi-quantitative data was obtained by measuring sample peak area relative to hexadecane internal standard. […]

[6] = injection port temperature 150 °C
[7] = injection port temperature 210 °C
[8] = injection port temperature 125 °C

CC(C)=CCC/C(C)=C/CC/C(C)=C/CO[P@@](=O)(O)OP(=O)(O)O (stereo in doubt) [FDP, farnesyl diphosphate]
Km (Germacrene D synthase; saturating Mg2+, pH 7.5, 30 °C): 1 to 2 µM

CC1=C[C@@H]2[C@@H](CC1)[C@](C)(O)CC[C@H]2C(C)C [Alpha-cadinol]
miticidal activity (house dust mites): potent miticide

C=C[C@]1(C)CC[C@@H](C(C)(C)O)C[C@H]1C(=C)C [Elemol]
Peak Area [1, 6]: ca. 8.4 × 10^6 | Peak Area [1, 7]: 3.78 × 10^7 | Peak Area [2, 8]: ca. 9 × 10^4^ | Peak Area [2, 6]: ca. 1.4 × 10^5^ | Peak Area [2, 7]: 5.75 × 10^6

CC(C)=CCC/C(C)=C/CC/C(C)=C/COP(=O)(O)OP(=O)(O)O [FDP, farnesyl diphosphate]
Km [3]: 0.4 to 4.5 µM | saturating concentration of FDP (Germacrene D synthase): ~7.5 µM | inhibition by substrate (Germacrene D synthase; 1 mM substrate concentration): ~50%

CC(C)=CCC/C(C)=C/COP(=O)(O)OP(=O)(O)O [GDP, geranyl diphosphate]
products on addition of GDP instead of FDP [4]: did not result in the production of any monoterpenes | products on addition of GDP instead of FDP [5]: did not produce any germacrene D

CC(C)=C1C/C=C(\C)CC/C=C(\C)CC1 [Germacrene B]
Peak Area ([1]; injection port temperature 100 °C): 5.0 × 10^6 | Peak Area [1, 8]: 7.40 × 10^6 | Peak Area [1, 6]: 1.0 × 10^7 | Peak Area [1, 7]: 3.92 × 10^6 | Peak Area [2, 8]: 7.57 × 10^5 | Peak Area [2, 6]: 8.58 × 10^5 | Peak Area [2, 7]: 5.87 × 10^5

[K+] [K^+]
effect of added ions on activity (Germacrene D synthase): little or no effect

[Mg+2] [Mg^2+]
Km [3]: 70 to 150 µM | inhibition at high concentrations of the chloride salts (Germacrene D synthase): No significant inhibition

[Mn+2] [Mn^2+]
Km [3]: 7 to 30 µM | Vrel with Mn2+ as cofactor relative to Mg2+ (Germacrene D synthase): ~27% | effect of Mn in the buffer when Mg2+ present (Germacrene D synthase): inhibition of activity | inhibition at high concentrations of the chloride salts (Germacrene D synthase): No significant inhibition

[Na+] [Na^+]
effect of added ions on activity (Germacrene D synthase): little or no effect

C=C[C@@]1(C)CCC(C(C)C)=C[C@@H]1C(=C)C [δ-Elemene]
Peak Area [1, 6]: ca. 5.7 × 10^5 | Peak Area [1, 7]: 4.14 × 10^6 | Peak Area [2, 7]: 9.05 × 10^5

B1: Germacrene D synthase: recombinant His6-tagged sesquiterpene synthase from Actinidia deliciosa petals, SEQ ID NO:2 (protein, listed as Actinidia deliciosa)
chain: MQLPCAQALPIPTVTTTTSIEPPHVTRRSANYHPSIWGDHFLAYSSDAMEEEVINMEQQQRLHHLKQKVRKMLEAAAEQSSQMLNLVDKIQRLGVSYHFETEIETALRHIYKTCDYHFDDLHTAALSFRLLRQQGYPVSCDMFDKFKNSKGEFQESIISDVQGMLSLYEATCLRIHGEDILDEALAFTITQLRSALPNLSTPFKEQIIHALNQPIHKGLTRLNARSHILFFEQNDCHSKDLLNFAKLDFNLLQKLHQRELCEITRWWKDLNFAKTLPFARDRMVECYFWILGVYFEPQYLLARRMLTKVIAMISIIDDIYDVYGTLEELVLFTDAIERWEISALDQLPEYMKLCYQALLDVYSMIDEEMAKQGRSYCVDYAKSSMKILVRAYFEEAKWFHQGYVPTMEEYMQVALVTAGYKMLATSSFVGMGDLATKEAFDWVSNDPLIVQAASVIGRLKDDIVGHKFEQKRGHVASAVECYSKQHGTTEEEAIIELDKQVTHSWKDINAECLCPIKVPMPLLARVLNLARVLYVIYQDEDGYTHPGTKVENFVTSVLIDSMPIN
modifications: His6 tag
decrease in enzyme activity (Germacrene D synthase; 0.5 pH units lower than 7.5): 47% | decrease in enzyme activity (Germacrene D synthase; 1 pH unit higher than 7.5): 59% | activity relative to optimal temperature activity (Germacrene D synthase; 16 °C): ~56% | activity at high temperature (Germacrene D synthase; 50 °C): Little or no activity | Vrel in the absence of DTT (Germacrene D synthase; optimal conditions, without DTT): ~53% | temperature of maximum synthase activity (Germacrene D synthase; range 16-50 °C, 10 mM MgCl2, 10 μM FDP): 30 °C | pH optimum (Germacrene D synthase; tri-buffer system pH 5.7-9.5, 10 mM MgCl2, 10 μM FDP): 7.5

Reference: US7312323B2, “Enzymes and polynucleotides encoding the same” (The Horticulture and Food Research Institute of New Zealand …, priority 2002, dated 2007)
